Key:
MurD = target: T1, MurD (Escherichia coli, UniProt P14900); assay: ligase reaction, product by HPLC and ESI-MS; assay type: biochemical; conditions: 2 mM D-glutamate, 5 mM ATP, 10 mM MgCl2, pH 8.0, 37 C; preparative synthesis with MurC and MurD
T1 construct: C-terminal 6xHis tag (pET21a), expressed in E. coli BL21(DE3)
T1 sequence (P14900 2-438): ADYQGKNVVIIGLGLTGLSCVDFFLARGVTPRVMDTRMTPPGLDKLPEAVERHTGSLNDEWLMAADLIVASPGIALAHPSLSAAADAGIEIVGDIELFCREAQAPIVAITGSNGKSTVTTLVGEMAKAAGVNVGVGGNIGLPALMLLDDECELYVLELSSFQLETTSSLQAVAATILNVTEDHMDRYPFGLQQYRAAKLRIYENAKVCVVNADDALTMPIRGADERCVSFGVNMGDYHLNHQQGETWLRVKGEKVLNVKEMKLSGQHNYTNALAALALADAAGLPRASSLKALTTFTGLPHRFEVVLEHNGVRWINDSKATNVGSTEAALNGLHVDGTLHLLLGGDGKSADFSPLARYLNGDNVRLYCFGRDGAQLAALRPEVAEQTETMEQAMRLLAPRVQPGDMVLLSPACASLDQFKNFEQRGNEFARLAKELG

MurC = target: T2, MurC (Escherichia coli, UniProt P17952); assay: ligase reaction, product UDP-MurNAc-Gly by mass spectrometry; assay type: biochemical; conditions: 18 mM Gly, 1 mM UDP-MurNAc, 5 mM ATP, 20 uM MurC, 24 h; low yield
T2 construct: C-terminal 6xHis tag (pET21a), expressed in E. coli BL21(DE3)

YfiH (PgeF) [1] = target: T3, YfiH (PgeF) (Escherichia coli, UniProt P33644, C107A); assay: X-ray crystal structure, […] A; assay type: binding; conditions: endogenous ligand copurified from E. coli; pH 5.4; active-site groove
T3 construct: full length, C-terminal 6xHis tag (pET21a), expressed in E. coli BL21(DE3); Met1 not seen in crystal

YfiH (PgeF) [2] = target: T3, YfiH (PgeF); assay: X-ray crystal structure, […] A; assay type: binding; conditions: soaked into YfiH-C107A crystals; pH 5.4; active-site groove

T3 sequence (P33644 whole entry C107A): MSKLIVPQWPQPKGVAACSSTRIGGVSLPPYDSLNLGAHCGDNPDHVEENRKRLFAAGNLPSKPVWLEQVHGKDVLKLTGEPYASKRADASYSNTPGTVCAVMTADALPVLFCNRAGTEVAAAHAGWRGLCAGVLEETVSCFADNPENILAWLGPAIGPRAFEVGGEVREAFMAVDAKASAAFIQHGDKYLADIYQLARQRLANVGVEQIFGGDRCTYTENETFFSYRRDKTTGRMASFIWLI
T2 sequence (P17952 whole entry): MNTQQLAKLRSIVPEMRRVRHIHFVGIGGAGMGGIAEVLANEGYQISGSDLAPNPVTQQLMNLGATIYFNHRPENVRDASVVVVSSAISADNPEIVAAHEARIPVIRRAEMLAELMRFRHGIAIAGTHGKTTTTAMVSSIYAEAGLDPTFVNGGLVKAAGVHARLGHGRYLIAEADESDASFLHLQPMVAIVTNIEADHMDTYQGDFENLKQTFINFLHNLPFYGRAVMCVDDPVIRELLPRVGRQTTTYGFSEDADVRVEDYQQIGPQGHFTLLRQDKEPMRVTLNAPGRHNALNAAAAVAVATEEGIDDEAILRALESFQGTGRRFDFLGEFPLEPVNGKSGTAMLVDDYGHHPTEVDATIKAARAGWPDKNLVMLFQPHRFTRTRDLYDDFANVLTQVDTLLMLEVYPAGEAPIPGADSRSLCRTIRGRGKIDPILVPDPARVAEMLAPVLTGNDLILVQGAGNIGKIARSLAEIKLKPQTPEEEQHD

CC(=O)N[C@H]1[C@@H](OP(=O)(O)OP(=O)(O)OC[C@H]2O[C@@H](n3ccc(=O)[nH]c3=O)[C@H](O)[C@@H]2O)O[C@H](CO)[C@@H](O)[C@@H]1O[C@H](C)C(=O)N[C@@H](C)C(=O)O [UMA, UDP–MurNAc–L-Ala]
ligase reaction, product by HPLC and ESI-MS (MurD): we further synthesized UDP–MurNAc–L-Ala–D-Glu (UMAE)

NCC(=O)O [Gly, glycine]
ligase reaction, product UDP-MurNAc-Gly by mass spectrometry (MurC): enzymatic synthesis with MurC, using glycine as a substrate

CC(=O)N[C@H]1[C@@H](OP(=O)(O)OP(=O)(O)OC[C@H]2O[C@@H](n3ccc(=O)[nH]c3=O)[C@H](O)[C@@H]2O)O[C@H](CO)[C@@H](O)[C@@H]1O[C@H](C)C(=O)O [UM, UDP-MurNAc]
X-ray crystal structure, 1.47 A (YfiH (PgeF) [1]): This compound was unambiguously identified as UDP-MurNAc based on its high-resolution map

CC(=O)N[C@H]1[C@@H](OP(=O)(O)OP(=O)(O)OC[C@H]2O[C@@H](n3ccc(=O)[nH]c3=O)[C@H](O)[C@@H]2O)O[C@H](CO)[C@@H](O)[C@@H]1O[C@H](C)C(=O)N[C@@H](CO)C(=O)O [UMS, UDP–MurNAc–L-Ser]
ligase reaction, product by HPLC and ESI-MS (MurD): UDP–MurNAc–L-Ser–D-Glu (UMSE) with recombinant MurD
X-ray crystal structure, 1.86 A (YfiH (PgeF) [2]): we obtained the crystals of YfiH bound to UDP–MurNAc–L-Ser
